In article PMC6695674, “Bioluminescence Resonance Energy Transfer Based G Protein-Activation Assay to Probe Duration of Antagonism at the Histamine H3 Receptor” (International Journal of Molecular Sciences, 2019):
Like-named read-outs stand apart in the source and are kept apart here.

Tests used:
[1] = molecular target: T1, human histamine H3 receptor (hH3R) (Homo sapiens, UniProt Q9Y5N1); assay: BRET between Venus-Gβ1γ2 and masGRK3ct-Nluc to measure hH3R-induced Gαi2 activation in HEK293T cells; assay type: cell-based; conditions: for inhibition of Venus-Gβ1γ2 recruitment to masGRK3ct-Nluc in response to 1 µM histamine: antagonist 10 µM; for agonist efficacy class in the Gβ1γ2 release assay: HEK293T cells co-expressing hH3R and Gαi2; for pEC50 ± S.E.M. / intrinsic activity (α): hH3R-mediated Gαi2 activation in HEK293T cells; for pEC50 ± S.E.M.: BRET ratio after 10 min, mean ± S.E.M. of three experiments
T1 construct: expressed in transfected cells; host or cells: HEK293T cells, transient transfection (hH3R in pcDEF3)
Experimental: Cells were transiently transfected in a 10 cm^2 dish with plasmids coding for Venus155-239-Gβ1 (0.4 µg), Venus1-155-Gγ2 (0.4 µg), masGRK3ct-Nluc (0.4 µg), hH3R (0.4 µg), Gαi2-protein (1.2 µg), and empty pcDEF3 (2.2 µg) using 20 µg 25 kDa linear polyethylenimine (Polysciences Inc, Warrington, PA, USA), as previously described. The next day, 50,000 cells/well were transferred to a poly-L-lysine coated black 96 well plates (Greiner Bio-one GmbH, Frickenhausen, Germany) and grown for an additional 24 h.
(§1) Agonist-induced BRET between Venus-Gβ1γ2 and masGRK3ct-Nluc was measured on adherent HEK293T cells co-expressing hH3R and Gαi2 in the presence of NanoGlo® (3.2 µL/mL) using a Mithras LB940 multimode microplate reader (Berthold, Germany). Cells were stimulated with histamine in the absence and presence of antagonist in HBSS buffer, and BRET (540–40 nm) and luminescence (480–20 nm) signals were monitored either immediately or after 10 min at 25 °C. […] Next, cells were incubated in HBSS and stimulated with 10 μM imetit after various incubation times. BRET between Venus-G1βγ2 and masGRK3ct-Nluc was immediately measured upon imetit stimulation and BRET ratio after 10 s were plotted. Re-equilibration of pre-bound antagonists was measured upon pre-incubation of the cells with increasing concentrations of antagonist for one hour prior to the addition of increasing concentrations imetit or VUF8328 and BRET ratio was calculated either immediately after agonist addition (0–3 min) or after 10 min re-equilibration.
Ligand-induced BRET changes were calculated by dividing emission at 540–40 nm (Venus) by emission at 480–20 nm (Nluc) and baseline-corrected by subtracting BRET of vehicle. […] Agonist and antagonist concentration-response curves were fitted to three-parameter response models to obtain EC50 and IC50 values, respectively. […] For receptor recovery the vehicle corrected BRET ratio at 10 s after agonist addition was plotted over time.

[2] = molecular target: hH3R; conditions: previously reported competition binding studies, cited from earlier work
[3] = molecular target: T1, human histamine H3 receptor (hH3R); assay: Recovery of hH3R responsiveness after washout of pre-bound antagonist (BRET Gβ1γ2 release assay); assay type: cell-based; conditions: for RecT (receptor recovery time, 1/krec): 1 h pre-incubation at 10 × IC50, washout, 10 µM imetit, measured in singlo; for recovery of H3R-induced Gβ1γ2 release to steady-state level upon washout: agonist stimulation after washout of pre-bound antagonist
Experimental: Cells were then stimulated with a saturating concentration of imetit (10 µM) after different time intervals and BRET changes between Venus-Gβ1γ2 and masGRK3ct-Nluc were measured directly and BRET ratio 10 s after agonist stimulation were plotted (Figure 2A,B).
as §1
The receptor recovery time (RecT) was calculated as the reciprocal of the krec.

[4] = molecular target: T1, human histamine H3 receptor (hH3R); assay: Re-equilibration of pre-bound antagonist, Schild-plot analysis (BRET Gβ1γ2 release assay); assay type: cell-based; conditions: for type of antagonism after 10 min re-equilibration: VUF8328, 1 h antagonist pre-incubation; for type of antagonism, response measured directly following agonist stimulation: imetit or VUF8328, 1 h antagonist pre-incubation
Experimental: Receptor-induced Venus-Gβ1γ2 recruitment to masGRK3ct-Nluc can be detected after different time intervals following stimulation with agonist, which offers the opportunity to evaluate the re-equilibration time of pre-bound antagonist within the same agonist-induced response. Cells were pre-incubated for 1 h with multiple concentrations of antagonist and subsequently stimulated with increasing concentrations agonist and BRET ratio was calculated either immediately after agonist addition or after 10 min re-equilibration (Figure 3A).
as §1
Equiactive agonist concentrations for Schild analysis were determined from concentration response curves at 10 % max agonist response (vide supra) in the absence and presence of increasing antagonist concentrations. Dose ratios (DR) were calculated by dividing the equiactive agonist concentration in the presence of antagonist by the equiactive agonist concentration in the absence of antagonist.

[5] = tested on: H3R; set-up: method as in PMID 30249614, PMID 30359639; conditions: intact HEK293T cells; cited from earlier work
[6] = tested on: hH3R; set-up: method as in PMID 30249614; conditions: CAMYEL biosensor; cited from earlier work
[7] = 1 h antagonist pre-incubation, agonist VUF8328, BRET after 10 min re-equilibration
[8] = 1 h antagonist pre-incubation, agonist VUF8328, BRET measured immediately
[9] = 1 h antagonist pre-incubation, agonist imetit, BRET measured immediately

T1 sequence (Q9Y5N1 whole entry): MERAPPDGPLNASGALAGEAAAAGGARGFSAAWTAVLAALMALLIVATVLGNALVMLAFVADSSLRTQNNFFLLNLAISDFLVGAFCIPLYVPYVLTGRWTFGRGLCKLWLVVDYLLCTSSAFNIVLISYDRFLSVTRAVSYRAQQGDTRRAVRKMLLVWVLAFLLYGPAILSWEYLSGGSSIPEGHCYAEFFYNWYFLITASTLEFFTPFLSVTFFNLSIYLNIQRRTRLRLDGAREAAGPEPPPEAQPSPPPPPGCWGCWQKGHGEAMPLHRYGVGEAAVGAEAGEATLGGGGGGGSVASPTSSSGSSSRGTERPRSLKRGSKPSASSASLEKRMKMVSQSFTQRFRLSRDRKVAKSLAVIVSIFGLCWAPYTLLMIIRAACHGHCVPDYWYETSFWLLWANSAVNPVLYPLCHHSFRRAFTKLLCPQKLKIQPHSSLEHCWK

CN1CCN(C(=O)c2cc3cc(Cl)ccc3[nH]2)CC1 [JNJ7777120]
inhibition of Venus-Gβ1γ2 recruitment to masGRK3ct-Nluc in response to 1 µM histamine [1]: ineffective

c1ncc(CC2CCNCC2)[nH]1 [immepip]
agonist efficacy class in the Gβ1γ2 release assay [1]: full agonist
pEC50 ± S.E.M. [1]: 9.9 ± 0.1
intrinsic activity (α) ([1]; mean ± S.E.M.): 1.0 ± 0.1
pKi ([2]; agonists): 8.8

CNC(=NCCSCc1csc(N=C(N)N)n1)NC#N [tiotidine]
inhibition of Venus-Gβ1γ2 recruitment to masGRK3ct-Nluc in response to 1 µM histamine [1]: ineffective

N=C(N)SCCCc1cnc[nH]1 [VUF8328]
agonist efficacy class in the Gβ1γ2 release assay [1]: partial agonist
pEC50 ± S.E.M. [1]: 9.4 ± 0.1
intrinsic activity (α) ([1]; mean ± S.E.M.): 0.7 ± 0.2
pKi ([2]; agonists): 8.5

NCCc1c[nH]cn1 [Histamine, histamine]
pKi ([2]; agonists): 6.7

CCNC(=O)[C@H]1C[C@@](F)(c2ccc(CN3CCCC3)c(F)c2)C1 [PF03654746]
pKB ([1]; calculated from IC50 values, inhibition of histamine-induced (1 µM) BRET ratio, 10 min, mean ± S.E.M.): 9.9 ± 0.1
RecT (receptor recovery time, 1/krec) [3]: 3.6 ± 0.3 min
hH3R recovery slower than upon washout of iodophenpropit and pitolisant ([3]; after antagonist washout): 2 to 2.5 fold
recovery of H3R-induced Gβ1γ2 release to steady-state level upon washout [3]: < 20 min
Schild slope, VUF8328 (10 min) [4, 7]: 1.2 ± 0.1
pA2, VUF8328 (10 min) [4, 7]: 9.6 ± 0.2
Schild slope, VUF8328 (0 min) [4, 8]: 1.5 ± 0.2
pA2, VUF8328 (0 min) [4, 8]: 9.3 ± 0.2
Schild slope, Imetit (0 min) [4, 9]: 1.0 ± 0.1
pA2, Imetit (0 min) [4, 9]: 9.8 ± 0.1
type of antagonism after 10 min re-equilibration [4]: near-surmountable
type of antagonism, response measured directly following agonist stimulation [4]: insurmountable antagonists
pKi ([2]; antagonists): 9.3
residence time [5]: approximately 15 min

COc1ccc(CN(CCN(C)C)c2ccccn2)cc1 [mepyramine]
inhibition of Venus-Gβ1γ2 recruitment to masGRK3ct-Nluc in response to 1 µM histamine [1]: ineffective

Clc1ccc(CCCOCCCN2CCCCC2)cc1 [Pitolisant]
inhibition of Venus-Gβ1γ2 recruitment to masGRK3ct-Nluc in response to 1 µM histamine [1]: fully inhibited
RecT (receptor recovery time, 1/krec) [3]: 1.7 ± 0.3 min
recovery of H3R-induced Gβ1γ2 release to steady-state level upon washout [3]: < 20 min
Schild slope, VUF8328 (10 min) [4, 7]: 1.1 ± 0.1
Schild slope, VUF8328 (0 min) [4, 8]: 1.4 ± 0.0
Schild slope, Imetit (0 min) [4, 9]: 1.1 ± 0.0
type of antagonism after 10 min re-equilibration [4]: surmountable
type of antagonism, response measured directly following agonist stimulation [4]: insurmountable antagonists
time to full recovery of hH3R responsiveness following washout [6]: > 30 min

N=C(N)SCCc1cnc[nH]1 [Imetit]
EC50 [1]: 0.251 nM
agonist efficacy class in the Gβ1γ2 release assay [1]: full agonist
intrinsic activity (α) ([1]; mean ± S.E.M.): 1.1 ± 0.1
pKi ([2]; agonists): 8.6
